The test system of the assay is Mycobacterium tuberculosis. The assay is described as follows: Antimycobacterial activity against ethambutol/isoniazid/rifampicin-resistant Mycobacterium tuberculosis incubated for 7 days by rapid direct susceptibility test. The class given is functional. To be noted: 168 h.

SMILES strings stand for the structures. Where only a bound is given, the exact number is not on record here.

By MIC is commonly meant the smallest concentration in the dilution series that meets the test's criterion for growth inhibition. A higher MIC goes with a need for much substance. `NNC(=O)c1ccncc1` [ISONIAZID] came in with an MIC of more than 128 µg/mL.

Source of the values: ChEMBL document CHEMBL4261608, “Design, synthesis and anti-mycobacterial activity evaluation of benzofuran-isatin hybrids” (Eur J Med Chem, 2018).
